Tested on: rumen fluid
Experiment: Rumen simulation continuous culture system (RSCC): methane production, pH, digestibility
Assay type: cell-based
Conditions: vs control group
Experimental: 0.12 mL of a micromineral solution was added to 250 mL of distilled water in an 2 L of Erlenmeyer flask and stirred. Another 250 mL of distilled water was added, and then stirred for 20 minutes. Then, 250 mL of an in vitro buffer solution was added and stirred for 10 minutes. Then, 250 mL of a macromineral solution was added and stirred for 15 minutes. Then, 1.25 mL of a resazurin solution was added to the mixture and stirred. Then, the flask was sealed with aluminum foil and heated while maintaining an anaerobic condition by bubbling CO2 gas in a Hungate anaerobic culture tube. When the solution started boiling, the solution was heated for 10 more minutes and then cooled down. 50 mL of a reduction solution was added to the cooled solution to obtain a buffer.
A sampled rumen fluid was first filtered through eight-layer gauze and then through glass wool. The filtered rumen fluid was maintained in an anaerobic condition by CO2 bubbling. While maintaining the anaerobic condition by CO2 bubbling, the buffer solution prepared in 1) above was mixed with the rumen fluid (250 mL of the rumen fluid, 600 mL of the buffer solution).
10 g of a substrate was added to a fermenter. The buffer solution prepared in 1) was added into a buffer bag while maintaining the anaerobic condition. A Tedlar bag filled with CO2 gas was connected to the buffer bag, and a tube connected to the buffer bag was connected to a buffer inlet port of the fermenter lid. Then a tube connected to a gas collecting bag was connected to a gas collecting port of the fermenter lid (a tube for gas was used). A pH probe and a temperature probe were placed deep enough to reach the culture medium while not touching the impellers. In the meantime, a feed inlet tube was placed deep enough to reach the culture medium through the feeding port of the fermenter lid. The fermenter lid was then connected to the fermenter and an anaerobic condition inside the fermenter was maintained by using vacuum grease and Teflon tape. CO2 gas was introduced into the fermenter through the gas collecting port for about 10 minutes (making the inside of the fermenter anaerobic, continuously introducing CO2 gas until the initiation of cultivation). All joint connections were sealed with vacuum grease and Teflon tape. Once all devices were installed, a peristaltic pump was activated and the buffer solution was introduced into the fermenter. The anaerobic culture medium was introduced into the fermenter until it overflowed, and then the CO2 gas introduction into the fermenter was discontinued and all inlet ports were sealed. The fermenter was then connected to a circulator, and cultivation started at 39° C. with a stirring speed between 99 rpm and 102 rpm. The pH of the culture medium of the fermenter was between 6.8 and 7.1, and a temperature was maintained at between 39° C. and 40° C. A turnover rate of the culture medium was stabilized at 0.042 h^−1 while a turnover rate of the substrate was stabilized at 0.017 h^−1.
Below is an experiment on reduction of methane production conducted in accordance with the above operation method using the RSCC system of 3) of Preparation Example. A feed additive for reducing methane was added with the substrate when the substrate was added.
The RSCC system was operated for five days of adjustment, and then total gas production, methane production, and pH values of the control group were measured for three days. After the measurements of the control group were completed, DADS was added at ratios of 0.1 wt %, 0.2 wt %, and 0.4 wt % per 10 g of a substrate, and then total gas production, methane production, and pH values were measured at the same time for another three days. The methane reduction rate was measured after having an adjustment period with a newly sampled rumen fluid every time one additive examines.

[1] = additive 0.1 wt % per 10 g of substrate
[2] = additive 0.5 wt % per 10 g of substrate

Compound | Methane Reduction (%) [1] [%] | Methane Reduction (%) (additive 0.2 wt % per 10 g of substrate) | Methane Reduction (%) [2] [%] | Methane Reduction (%) (additive 0.35 wt % per 10 g of substrate) | Methane Reduction (%) (additive 1.0 wt % per 10 g of substrate)
COc1ccc2cc3[n+](cc2c1OC)CCc1cc2c(cc1-3)OCO2 [Berberine, 5,6-dihydro-9,10-dimethoxybenzo[g]-1,3-benzodioxolo[5,6-a]quinolizinium] | 6.7 | 12.4 | 45.5 | – | –
C=CCSSCC=C [DADS, 4,5-dithia-1,7-octadiene diallyldisulfide] | 30.5 | – | – | – | –
O=[N+]([O-])O [Nitrate] | – | – | 31.0 | 14.0 | 8.1
((2R)-2-amino-3-[(S)-prop-2-enylsulfinyl] propanoic acid [Alliin] | – | – | 21.9 | – | –
